Data reported in patent US20250230193A1, “CYCLIC COMPOUND HAVING SELECTIVE KRAS INHIBITORY EFFECT ON HRAS AND NRAS” (CHUGAI SEIYAKU KABUSHIKI KAISHA, priority 2022, published 2025).
Where a SMILES comes first, the peptide text is derived from it. Bridges are numbered along the chain shown (N, C = ends). [ ]: non-standard residue; d: D form. hPhe(3-Cl-4-CF3) = N[C@@H](CCc1ccc(C(F)(F)F)c(Cl)c1)C(=O)O; NPrPhe(4-CF3) = CCCN[C@@H](Cc1ccc(C(F)(F)F)cc1)C(=O)O; NMeGly(cPent) = CN[C@H](C(=O)O)C1CCCC1; Hyp = O=C(O)[C@@H]1C[C@@H](O)CN1; NMeD = CN[C@@H](CC(=O)O)C(=O)O; NMeL = CN[C@@H](CC(C)C)C(=O)O; Ac5c = NC1(C(=O)O)CCCC1; Sar = CNCC(=O)O

What was measured:
[1] = target: GDP-bound NRAS wild-type protein (Homo sapiens, UniProt P01111); test: Binding to NRAS by surface plasmon resonance (SPR), Single Cycle Kinetics
[2] = target: GDP-bound HRAS wild-type protein (Homo sapiens, UniProt P01112); test: Binding to HRAS by surface plasmon resonance (SPR), Single Cycle Kinetics
[3] = KD ratio, GDP-bound NRAS wild-type vs GDP-bound KRAS wild-type, SPR
[4] = KD ratio, GDP-bound HRAS wild-type vs GDP-bound KRAS wild-type, SPR
[5] = SPR, GDP-bound wild-type proteins

GDP-bound HRAS wild-type protein, sequence (P01112 whole entry): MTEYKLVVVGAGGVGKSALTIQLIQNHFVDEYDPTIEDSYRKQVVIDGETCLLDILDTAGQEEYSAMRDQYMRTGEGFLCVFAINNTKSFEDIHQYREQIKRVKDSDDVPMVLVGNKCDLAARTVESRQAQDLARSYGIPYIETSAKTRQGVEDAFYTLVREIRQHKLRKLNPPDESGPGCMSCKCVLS
GDP-bound NRAS wild-type protein, sequence (P01111 whole entry): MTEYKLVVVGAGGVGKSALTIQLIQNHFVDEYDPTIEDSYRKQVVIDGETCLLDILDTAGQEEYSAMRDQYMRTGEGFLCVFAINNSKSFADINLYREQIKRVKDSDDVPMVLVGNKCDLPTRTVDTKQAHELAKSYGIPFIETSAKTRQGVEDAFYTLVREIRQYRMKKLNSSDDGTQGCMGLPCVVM

## CCO[C@@H]1C[C@H]2C(=O)NC3(CCC3)C(=O)N(C)[C@@H](C3CCCC3)C(=O)N(C)[C@H](CC)CC(=O)N(C)[C@@H](CC)C(=O)N[C@@H]([C@@H](C)CC)C(=O)N(C)CC(=O)N(C)[C@H]3C/C=C\CCN(C3=O)[C@@H](Cc3ccc(C(F)(F)F)cc3)C(=O)N(C)CC(=O)N[C@@H](CCc3cc(F)c(C(F)(F)F)c(F)c3)C(=O)N2C1 [PP1625]
[1]; [3]
  NRAS/KRAS (ratio of KD value for NRAS to KD value for KRAS): B (a compound having 3 or more and less than 10 is denoted as B)
[2]; [4]
  HRAS/KRAS (ratio of KD value for HRAS to KD value for KRAS): B (a compound having 3 or more and less than 10 is denoted as B)

## CCO[C@@H]1C[C@H]2C(=O)NC3(CC(C)(C)C3)C(=O)N(C)[C@@H](C3CCCC3)C(=O)N(C)[C@H](C(=O)N(C)C)CC(=O)N(C)[C@H]3CCCCCCc4ccc(cc4)C[C@@H](C(=O)N(C)CC(=O)N[C@@H](CCc4ccc(Cl)c(Cl)c4)C(=O)N2C1)N1CC/C=C\C[C@@H](C1=O)N(C)C(=O)CN(C)C(=O)[C@H]([C@@H](C)CC)NC3=O [PP3071]
[1]; [5]
  NRAS/KRAS (ratio of KD value with respect to GDP-bound NRAS wild-type protein to KD value with respect to KRAS): A (a compound having 10 or more and less than 20 is denoted as A)
[2]; [5]
  HRAS/KRAS (ratio of KD value with respect to GDP-bound HRAS wild-type protein to KD value with respect to KRAS): B (a compound having 3 or more and less than 10 is denoted as B)

## CC[C@H](C)[C@@H]1NC(=O)[C@H](CC(C)C)N(C)C(=O)C[C@@H](C(=O)N2CCOCC2)N(C)C(=O)[C@H](C2CCCC2)N(C)C(=O)C2(CCC2)NC(=O)[C@@H]2C[C@@H](C(F)(F)F)CN2C(=O)[C@H](CCc2cc(F)c(C(F)(F)F)c(F)c2)NC(=O)CN(C)C(=O)[C@H](Cc2ccc(C(F)(F)F)cc2)N2CCCC[C@@H](C2=O)N(C)C(=O)CN(C)C1=O [PP0809]
[1]; SPR
  NRAS/KRAS (ratio of KD value with respect to GDP-bound NRAS wild-type protein to KD value with respect to KRAS): B (a compound having 3 or more and less than 10 is denoted as B)
[2]; SPR
  HRAS/KRAS (ratio of KD value with respect to GDP-bound HRAS wild-type protein to KD value with respect to KRAS): B (a compound having 3 or more and less than 10 is denoted as B)

## CCO[C@@H]1C[C@H]2C(=O)NC3(CC(C)(C)C3)C(=O)N(C)[C@@H](C3CCCC3)C(=O)N(C)[C@H](C(=O)N(CC)CC)CC(=O)N(C)[C@@H](COC)C(=O)N[C@@H]([C@@H](C)CC)C(=O)N(C)CC(=O)N(C)[C@H]3C/C=C\CCN(C3=O)[C@@H](Cc3ccc(C)cc3)C(=O)N(C)CC(=O)N[C@@H](CCc3ccc(C(F)(F)F)c(Cl)c3)C(=O)N2C1 [PP2400]
[1]; SPR, GDP-bound NRAS wild-type vs GDP-bound KRAS wild-type
  NRAS/KRAS (ratio of KD value with respect to NRAS to KD value with respect to KRAS): A (a compound having 10 or more and less than 20 is denoted as A)
[2]; SPR, GDP-bound HRAS wild-type vs GDP-bound KRAS wild-type
  HRAS/KRAS (ratio of KD value with respect to HRAS to KD value with respect to KRAS): A (a compound having 10 or more and less than 20 is denoted as A)

## CCO[C@@H]1C[C@H]2C(=O)NC3(CCC3)C(=O)N(C)[C@@H](C(CC)CC)C(=O)N(C)[C@H](C(=O)N(C)C)CC(=O)N(C)[C@@H](CC)C(=O)N[C@@H]([C@@H](C)CC)C(=O)N(C)CC(=O)N(C)[C@H]3C/C=C\CCN(C3=O)[C@@H](Cc3ccc(C(F)(F)F)cc3)C(=O)N(C)CC(=O)N[C@@H](CCc3cc(F)c(C(F)(F)F)c(F)c3)C(=O)N2C1 [PP1200]
[1]; [3]
  NRAS/KRAS (ratio of KD value with respect to NRAS to KD value with respect to KRAS): AA (a compound having 20 or more is denoted as AA)
[2]; [4]
  HRAS/KRAS (ratio of KD value with respect to HRAS to KD value with respect to KRAS): A (a compound having 10 or more and less than 20 is denoted as A)

## CCO[C@@H]1C[C@H]2C(=O)NC3(CCC3)C(=O)N(C)[C@@H](CC(C)(C)C)C(=O)N(C)[C@H](C(=O)N3CCCC3)CC(=O)N(C)[C@@H](CC)C(=O)N[C@@H]([C@@H](C)CC)C(=O)N(C)CC(=O)N(C)[C@H]3C/C=C\CCN(C3=O)[C@@H](CC3CCCCC3)C(=O)N(C)CC(=O)N[C@@H](CCc3cc(F)c(C(F)(F)F)c(F)c3)C(=O)N2C1 [PP2772]
[1]; class symbols
  NRAS/KRAS (ratio of KD value with respect to GDP-bound NRAS wild-type protein to KD value with respect to KRAS): B (a compound having 3 or more and less than 10 is denoted as B)
[2]; class symbols
  HRAS/KRAS (ratio of KD value with respect to GDP-bound HRAS wild-type protein to KD value with respect to KRAS): B (a compound having 3 or more and less than 10 is denoted as B)

## CCO[C@@H]1C[C@H]2C(=O)NC3(CCC3)C(=O)N(C)[C@@H](C3CCCC3)C(=O)N(C)[C@H](C(=O)N(C)C)CC(=O)N(C)[C@@H](Cc3cccnc3)C(=O)N[C@@H]([C@@H](C)CC)C(=O)N(C)CC(=O)N(C)[C@H]3CCCCCN(C3=O)[C@@H](Cc3ccc(C(F)(F)F)cc3)C(=O)N(C)CC(=O)N[C@@H](CCc3cc(F)c(C(F)(F)F)c(F)c3)C(=O)N2C1 [PP0673]
[1]; SPR
  NRAS/KRAS (ratio of KD value with respect to GDP-bound NRAS wild-type protein to KD value with respect to KRAS): B (a compound having 3 or more and less than 10 is denoted as B)
[2]; SPR
  HRAS/KRAS (ratio of KD value with respect to GDP-bound HRAS wild-type protein to KD value with respect to KRAS): B (a compound having 3 or more and less than 10 is denoted as B)

## CCCN1C(=O)CN(C)C(=O)CN(C)C(=O)[C@H]([C@@H](C)CC)NC(=O)[C@H](CC(C)C)N(C)C(=O)C[C@@H](C(=O)N(C)C)N(C)C(=O)[C@H](C2CCCC2)N(C)C(=O)C2(CCCC2)NC(=O)[C@@H]2C[C@@H](OCC)CN2C(=O)[C@H](CCc2ccc(C(F)(F)F)c(Cl)c2)NC(=O)CN(C)C(=O)[C@@H]1Cc1ccc(C(F)(F)F)cc1 [PP0415] ([NMeL]I[Sar][Sar][NPrPhe(4-CF3)][Sar][hPhe(3-Cl-4-CF3)][Hyp](Et)[Ac5c][NMeGly(cPent)][NMeD]-NMe2; lactam N-11)
[1]; SPR
  NRAS/KRAS (ratio of KD value with respect to GDP-bound NRAS wild-type protein to KD value with respect to KRAS): B (a compound having 3 or more and less than 10 is denoted as B)
[2]; SPR
  HRAS/KRAS (ratio of KD value with respect to GDP-bound HRAS wild-type protein to KD value with respect to KRAS): B (a compound having 3 or more and less than 10 is denoted as B)
